Results: US10329304B2, “Compounds and methods for inhibition of hedgehog signaling and phosphodiesterase” (Vanderbilt University, priority 2014, dated 2019)
Entries after “also recorded” stand apart in the source; their conditions may differ.

Assays:
[1] = tested on: MCF7; assay: Cell viability assay (CellTiter-Blue, 72 hr); type: cell-based; conditions: human cancer cells
Protocol: (§1) Cancer cell lines were seeded in 96 well tissue culture plate at a low density (10,000 cells per well) and treated with varying concentrations of Eggmanone. After 72 hr incubation, CellTiter-Blue Cell Viability Assay (Promega, Madison, Wis.) was then performed according to manufacturer's protocol. Absorbance was then measured in a Modulus Microplate reader (Promega, Madison, Wis.) at 590 nm and compared to cells treated with DMSO.
as §1, with “density” for “density (10,000 cells per well)”, “compounds identified in Table 7.” for “Eggmanone.”

[2] = target: T1, PDE4D3 (Homo sapiens, UniProt Q08499); assay: In vitro PDE assay; type: biochemical; conditions: for IC50: Table 9A; for Mode of inhibition (Lineweaver-Burk, Eadie Hofstee): purified PDE4D3
T1 construct: purchased BPS Biosciences (San Diego, Calif.); kinetic studies by Millipore (St. Louis, Mo.)
In short: (§2)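 Recombinant human PDE incubated 60 min at room temperature in duplicate with 100 nM FAM-cAMP in 10 mM Tris-HCl pH 7.4, 10 mM MgCl2, 0.05% Tween 20, 1% DMSO. FAM-AMP product captured by bead binding agent for 60 min, then fluorescence read at 485/528 nm.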

[3] = target: T2, PDE4D2 (Homo sapiens, UniProt Q08499); assay: In vitro PDE assay; type: biochemical; conditions: for IC50: Table 9A
T2 construct: purchased BPS Biosciences (San Diego, Calif.)
In short: as §2

[4] = tested on: PC3; assay: Cell viability assay (CellTiter-Blue, 72 hr); type: cell-based; conditions: for EC50: PC-3, human cancer cells, read-out: CELL KILLING EC50 (μM) Prostate PCx3
Protocol: as §1

[5] = tested on: Ptch1 transcription; assay: Sufu−/− mouse embryonic fibroblasts qRT-PCR; type: cell-based; conditions: Mus musculus, Fibroblast; read-out: Sufu Null (Ptc) % Inh., 10 μM

T1 sequence (Q08499 1-673 isoform Q08499-2): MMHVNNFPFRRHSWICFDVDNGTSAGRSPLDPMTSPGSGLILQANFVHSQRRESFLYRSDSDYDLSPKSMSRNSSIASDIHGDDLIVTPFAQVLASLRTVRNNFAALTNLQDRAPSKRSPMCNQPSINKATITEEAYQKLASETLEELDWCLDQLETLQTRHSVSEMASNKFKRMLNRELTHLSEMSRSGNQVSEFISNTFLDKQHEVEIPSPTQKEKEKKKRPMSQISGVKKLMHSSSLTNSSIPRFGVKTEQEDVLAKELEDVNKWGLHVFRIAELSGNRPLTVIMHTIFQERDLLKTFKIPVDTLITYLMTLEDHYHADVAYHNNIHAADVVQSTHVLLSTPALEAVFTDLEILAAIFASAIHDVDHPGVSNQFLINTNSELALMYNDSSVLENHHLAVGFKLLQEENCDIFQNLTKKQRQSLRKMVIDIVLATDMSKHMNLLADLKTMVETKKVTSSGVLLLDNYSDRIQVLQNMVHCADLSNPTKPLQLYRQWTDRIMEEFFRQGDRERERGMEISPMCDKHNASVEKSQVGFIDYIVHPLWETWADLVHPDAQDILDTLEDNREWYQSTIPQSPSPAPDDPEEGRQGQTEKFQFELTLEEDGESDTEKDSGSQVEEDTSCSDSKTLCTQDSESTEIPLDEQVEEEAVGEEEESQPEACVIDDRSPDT
T2 sequence (Q08499 303-809): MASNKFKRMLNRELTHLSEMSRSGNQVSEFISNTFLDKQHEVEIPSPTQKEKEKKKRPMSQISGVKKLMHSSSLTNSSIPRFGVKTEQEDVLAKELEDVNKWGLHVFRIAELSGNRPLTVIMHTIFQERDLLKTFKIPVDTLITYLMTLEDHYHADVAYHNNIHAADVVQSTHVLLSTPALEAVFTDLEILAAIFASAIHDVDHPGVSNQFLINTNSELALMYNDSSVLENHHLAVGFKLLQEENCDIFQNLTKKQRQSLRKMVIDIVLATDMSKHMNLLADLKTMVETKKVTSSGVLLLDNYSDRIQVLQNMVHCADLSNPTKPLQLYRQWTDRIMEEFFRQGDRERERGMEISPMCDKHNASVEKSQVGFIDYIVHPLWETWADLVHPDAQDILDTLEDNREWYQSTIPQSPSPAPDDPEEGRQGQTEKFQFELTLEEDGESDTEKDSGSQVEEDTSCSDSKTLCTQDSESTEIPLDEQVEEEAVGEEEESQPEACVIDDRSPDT

**Q.** What does the source list for `C=C(C)Cn1c(SCC(=O)c2cccs2)nc2sc3c(c2c1=O)CCCC3` [EGM, Eggmanone]?
**A.** CELL KILLING EC50 (μM) Breast MCF7 [1]: UnCh; IC50 [2]: 1.1 µM; Mode of inhibition (Lineweaver-Burk, Eadie Hofstee) [2]: competitive mode of inhibition; also recorded: acts in a competitive manner; IC50 [3]: 1.3 µM; EC50 [4]: 77.2 µM; inhibition at 10 µM [5]: 65.6%

**Q.** `C=C(C)Cn1c(SCC(=O)c2cccs2)nc2sc3c(c2c1=O)CCCC3` [Eggmanone, 3-(2-methylallyl)-2-((2-oxo-2-(thiophen-2-yl)ethyl)thio)-5,6,7,8-tetrahydrobenzo[4,5]thieno[2,3-d]pyrimidine-4(3H)-one] was tested. Which “Potency against PDE4D3 versus any tested PDE not of the PDE4 family” value [2] did it give?
**A.** Its value is “at least 60 fold”.

**Q.** What about the “Mode of inhibition (Lineweaver-Burk, Eadie Hofstee)” value [2] of the same compound?
**A.** The value was “exhibited a competitive mode of inhibition”.

**Q.** What about the “Inhibition of super-short isoform PDE4D2” value [3] of the same compound?
**A.** Its value is “not inhibited”.

**Q.** What about the “Effect on PC3 prostate cancer cell line” value [4] of the same compound?
**A.** The value was “is affected”.

**Q.** With `O=C(CSc1nc2sc3c(c2c(=O)n1C1CC1)CCCC3)c1cccs1` [JEH-3-039-2] as the compound, how does the IC50 [2] read?
**A.** Its IC50 is greater than 100 µM.

**Q.** What about the inhibition at 10 µM [5] of the same compound?
**A.** The inhibition at 10 µM was 80.4%.

**Q.** What does the source list for `C=CCn1c(SCC(=O)c2cccs2)nc2sc3c(c2c1=O)CCCC3` [JEH-3-039-3]?
**A.** CELL KILLING EC50 (μM) Breast MCF7 [1]: UnCh; IC50 [2]: > 100 µM; IC50 [3]: > 100 µM; EC50 [4]: 50.1 µM; inhibition at 10 µM [5]: 38.1%

**Q.** How did the IC50 [2] turn out when `C=C(C)Cn1c(SCC(=O)c2ccccc2)nc2sc3c(c2c1=O)CCCC3` [JEH-3-045-1] was run?
**A.** Its IC50 is 18 µM.

**Q.** What about the IC50 [3] of the same compound?
**A.** Its IC50 is 14 µM.

**Q.** And the inhibition at 10 µM [5]?
**A.** The inhibition at 10 µM was 47.6%.

**Q.** How did the “CELL KILLING EC50 (μM) Breast MCF7” value [1] turn out when `C=C(C)Cn1c(SCC(=O)c2ccncc2)nc2sc3c(c2c1=O)CCCC3` [JEH-3-048-1] was run?
**A.** The value was “UnCh”.

**Q.** And the IC50 [2]?
**A.** Its IC50 is 24 µM.

**Q.** And the IC50 [3]?
**A.** Its IC50 is 16 µM.

**Q.** And the EC50 [4]?
**A.** Its EC50 is 81.2 µM.

**Q.** For `C=C(C)Cn1c(SCC(=O)c2ccccn2)nc2sc3c(c2c1=O)CCCC3` [JEH-3-063], which “CELL KILLING EC50 (μM) Breast MCF7” value [1] is on record?
**A.** The value was “UnCh”.

**Q.** What about the IC50 [2] of the same compound?
**A.** The IC50 was 23 µM.

**Q.** And the IC50 [3]?
**A.** Its IC50 is 4.9 µM.

**Q.** What about the EC50 [4] of the same compound?
**A.** Its EC50 is 100 µM.

**Q.** For `C=C(C)Cn1c(SCC(=O)c2nccs2)nc2sc3c(c2c1=O)CCCC3` [JEH-3-069-1], which “CELL KILLING EC50 (μM) Breast MCF7” value [1] is on record?
**A.** The value was “UnCh”.

**Q.** And the IC50 [2]?
**A.** Its IC50 is 15 µM.

**Q.** What about the IC50 [3] of the same compound?
**A.** The IC50 was 6.4 µM.

**Q.** And the EC50 [4]?
**A.** The EC50 was 69.7 µM.
